{
  "source": "patent US20230302032A1",
  "about": "“ANTIBACTERIAL COMPOSITIONS AND METHODS FOR FABRICATING THEREOF” (Harrow IP LLC, priority 2020, published 2023)",
  "key": {"[1]": {"test": "HPLC potency and stability of stored antibiotic solutions;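 also: stored antibiotic compositions assayed by HPLC for remaining potency, USP acceptance requires at least 90% of nominal concentration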", "settings": "for Stability of the composition (assay %): composition of Example 2 (with L-glycine)", "description": "The final product was tested chromatographically (HPLC) for potency and stability after being stored for 6 months. […] According to the USP rules, at least a 90% concentration is required for the product to be acceptable.\nThe stability of this composition was then monitored for a period of 180 days."}},
  "note": "Where two headings read alike, the source gives them in different places.",
  "data": [
    {"compound": "NC[C@H]1O[C@H](O[C@H]2[C@H](O)[C@@H](O[C@H]3O[C@H](CO)[C@@H](O)[C@H](N)[C@H]3O)[C@H](N)C[C@@H]2N)[C@H](N)C[C@@H]1O", "note": "[Tobramycin, (2S,3R,4S,5S,6R)-4-amino-2-{[(1S,2S,3R,4S,6R)-4,6-diamino-3-{[(2R,3R,5S,6R)-3-amino-6-(aminomethyl)-5-hydroxyoxan-2-yl]oxy}-2-hydroxycyclohexyl]oxy}-6-(hydroxymethyl)oxane-3,5-diol]", "values": [
      {"measurement": "Stability of the composition (assay %)", "setting": "0 days", "result": 102.3, "unit": "%"},
      {"measurement": "Stability of the composition (assay %)", "setting": "30 days", "result": 106.9, "unit": "%"},
      {"measurement": "Stability of the composition (assay %)", "setting": "60 days", "result": 98.9, "unit": "%"},
      {"measurement": "Stability of the composition (assay %)", "setting": "90 days", "result": 97.6, "unit": "%"},
      {"measurement": "Stability of the composition (assay %)", "setting": "180 days", "result": 97.9, "unit": "%"},
      {"measurement": "storage stability alone", "setting": "180 days", "result": "withstood the storage for 180 days very well"}
    ]},
    {"compound": "Vancomycin", "values": [
      {"measurement": "Stability result, % (HPLC potency)", "setting": "[1]; Tobramycin-Vancomycin System, aqueous solution, 1.5 % tobramycin, 5% vancomycin, no lidocaine, stored at −4° C. in a dark place, Day 0", "result": 108, "unit": "%"},
      {"measurement": "Stability result, % (HPLC potency)", "setting": "[1]; Tobramycin-Vancomycin System, aqueous solution, 1.5 % tobramycin, 5% vancomycin, no lidocaine, stored at −4° C. in a dark place, Day 30", "result": 108, "unit": "%"},
      {"measurement": "Stability result, % (HPLC potency)", "setting": "[1]; Tobramycin-Vancomycin System, aqueous solution, 1.5 % tobramycin, 5% vancomycin, no lidocaine, stored at −4° C. in a dark place, Day 60", "result": 106, "unit": "%"},
      {"measurement": "Stability result, % (HPLC potency)", "setting": "[1]; Tobramycin-Vancomycin System, aqueous solution, 1.5 % tobramycin, 5% vancomycin, no lidocaine, stored at −4° C. in a dark place, Day 90", "result": 107, "unit": "%"},
      {"measurement": "Stability result, % (HPLC potency)", "setting": "[1]; Tobramycin-Vancomycin System, aqueous solution, 1.5 % tobramycin, 5% vancomycin, no lidocaine, stored at −4° C. in a dark place, Day 120", "result": 91, "unit": "%"},
      {"measurement": "Stability result, % (HPLC potency)", "setting": "[1]; Tobramycin-Vancomycin System, aqueous solution, 1.5 % tobramycin, 5% vancomycin, no lidocaine, stored at −4° C. in a dark place, Day 150", "result": 83, "unit": "%"},
      {"measurement": "Stability result, % (HPLC potency)", "setting": "[1]; Tobramycin-Vancomycin System, aqueous solution, 1.5 % tobramycin, 5% vancomycin, no lidocaine, stored at −4° C. in a dark place, Day 180", "result": 81, "unit": "%"},
      {"measurement": "Stability result, % (HPLC potency)", "setting": "[1]; Vancomycin alone, 5.0 % aqueous solution, stored in a dark place at room temperature, Day 0", "result": 113, "unit": "%"},
      {"measurement": "Stability result, % (HPLC potency)", "setting": "[1]; Vancomycin alone, 5.0 % aqueous solution, stored in a dark place at room temperature, Day 30", "result": 106, "unit": "%"},
      {"measurement": "Stability result, % (HPLC potency)", "setting": "[1]; Vancomycin alone, 5.0 % aqueous solution, stored in a dark place at room temperature, Day 60", "result": 111, "unit": "%"},
      {"measurement": "Stability result, % (HPLC potency)", "setting": "[1]; Vancomycin alone, 5.0 % aqueous solution, stored in a dark place at room temperature, Day 90", "result": 106, "unit": "%"},
      {"measurement": "concentration of vancomycin", "setting": "[1]; after 120 days storage, system having no lidocaine (Table 4)", "result": "≤ 91", "unit": "%"},
      {"measurement": "Stability of the composition (assay %)", "setting": "[1]; Day 0", "result": 104.9, "unit": "%"},
      {"measurement": "Stability of the composition (assay %)", "setting": "[1]; Day 30", "result": 104.0, "unit": "%"},
      {"measurement": "Stability of the composition (assay %)", "setting": "[1]; Day 60", "result": 99.1, "unit": "%"},
      {"measurement": "Stability of the composition (assay %)", "setting": "[1]; Day 90", "result": 99.8, "unit": "%"},
      {"measurement": "Stability of the composition (assay %)", "setting": "[1]; Day 180", "result": 100.5, "unit": "%"},
      {"measurement": "storage stability alone", "setting": "[1]; each antibiotic alone, 180 days (Tables 2 and 3)", "result": "withstood the storage for 180 days very well"},
      {"measurement": "concentration of vancomycin", "setting": "[1]; same storage times (120 days and after), lidocaine present in the composition (Table 1)", "result": "at least 108%"}
    ]}
  ]
}
